Read-outs that look alike come from different tables or passages of the source.
How the values were obtained:
Type in all cases: cell-based
OCT1 [1] = biological target: T1, OCT1 (Homo sapiens, UniProt O15245); assay: Cis-inhibition of OCT1-mediated TEA accumulation in HEK-OCT1 cells; settings: pyrethroid 100 μM; 29 μM [14C]-TEA, 5 min
T1 sequence (O15245 1-554): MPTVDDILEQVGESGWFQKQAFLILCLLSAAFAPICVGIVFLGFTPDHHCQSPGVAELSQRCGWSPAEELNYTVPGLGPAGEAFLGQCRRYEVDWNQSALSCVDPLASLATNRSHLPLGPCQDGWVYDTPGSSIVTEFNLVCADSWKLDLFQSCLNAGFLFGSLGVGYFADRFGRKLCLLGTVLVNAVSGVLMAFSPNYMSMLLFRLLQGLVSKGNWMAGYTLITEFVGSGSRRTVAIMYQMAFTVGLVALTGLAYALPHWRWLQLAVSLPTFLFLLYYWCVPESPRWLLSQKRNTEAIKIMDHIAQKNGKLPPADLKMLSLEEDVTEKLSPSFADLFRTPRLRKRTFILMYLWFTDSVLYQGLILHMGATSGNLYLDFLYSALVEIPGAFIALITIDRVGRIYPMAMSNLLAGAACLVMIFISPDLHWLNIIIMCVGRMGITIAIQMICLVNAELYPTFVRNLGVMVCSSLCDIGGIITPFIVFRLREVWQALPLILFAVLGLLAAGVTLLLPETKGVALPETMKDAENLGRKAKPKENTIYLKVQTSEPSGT
Method: (§1) Intracellular accumulation of TEA was then determined by scintillation counting. […] After washing, cells were next re-incubated with 29 μM [1-^14C]-TEA for 5 min at 37°C. Intracellular accumulation of [1-^14C]-TEA was then determined by scintillation counting.

MATE2-K = biological target: T2, MATE2-K (Homo sapiens, UniProt Q86VL8); assay: MATE2-K activity: TEA accumulation in HEK-MATE2-K cells
T2 construct: expressed in transfected cells; host or cells: HEK293
T2 sequence (Q86VL8 1-566 isoform Q86VL8-3): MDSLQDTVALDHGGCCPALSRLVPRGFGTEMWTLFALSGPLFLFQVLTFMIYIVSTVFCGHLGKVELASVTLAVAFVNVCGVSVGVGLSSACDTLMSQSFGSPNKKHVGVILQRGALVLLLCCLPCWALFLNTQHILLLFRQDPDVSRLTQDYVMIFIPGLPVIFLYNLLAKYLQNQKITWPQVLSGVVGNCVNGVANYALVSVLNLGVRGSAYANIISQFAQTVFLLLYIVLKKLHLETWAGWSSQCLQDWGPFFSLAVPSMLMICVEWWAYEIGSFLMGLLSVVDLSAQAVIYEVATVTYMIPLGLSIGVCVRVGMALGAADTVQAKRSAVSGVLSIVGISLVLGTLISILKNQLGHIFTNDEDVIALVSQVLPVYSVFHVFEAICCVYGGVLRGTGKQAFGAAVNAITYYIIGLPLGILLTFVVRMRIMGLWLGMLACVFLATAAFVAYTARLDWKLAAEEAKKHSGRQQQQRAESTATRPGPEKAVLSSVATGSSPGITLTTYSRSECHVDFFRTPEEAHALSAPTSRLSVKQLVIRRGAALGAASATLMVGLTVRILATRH
Method: (§2) The effects of pyrethroids on activity of ABC and SLC transporters were determined through measuring cellular accumulation or retention of fluorescent or radiolabeled reference substrates for transporters, in the presence or absence of reference inhibitors, as previously described [41].
For accumulation assays (performed for all transporters, excepted BCRP), transporter-expressing cells usually cultured in 48-well plates were first incubated at 37°C with reference substrates in the absence (control) or presence of pyrethroids or reference inhibitors, in a well-defined transport assay medium [42], consisting of 136 mM NaCl, 5.3 mM KCl, 1.1mM KH2PO4, 0.8 mM MgSO4, 1.8 mM CaCl2, 10 mM HEPES, 11 mM D-glucose and adjusted to pH = 7.4 (excepted for MATE transporter assays, for which pH was set to 8.4). The nature of substrates and reference inhibitors and the incubation times with substrates, that varied according to the transporter, were selected in agreement with previous studies [41, 43] and are indicated in S3 Table. The total incubation volume with substrates was 200 μL/well. After washing twice in phosphate-buffered saline (PBS) (200 μL/well/washing), cells were lysed in distilled water (155 μL/well). An aliquot of cell lysate (5 μL) was then taken for determining cellular protein content by the Bradford method [44]. The rest of lysate (150 μL/well) was used for measuring intracellular accumulation of reference substrates by scintillation counting or spectrofluorimetry using a SpectraMax Gemini SX spectrofluorometer (Molecular Devices, Sunnyvale, CA, USA) (excitation and emission wavelengths were 485 and 535 nm, respectively, for rhodamine 123 and fluorescein, and 355 and 460 nm, respectively, for DAPI).
(§3) Intracellular concentrations of reference substrates were initially expressed as fluorescence arbitrary units (for fluorescent dye substrates) or as moles (for radiolabeled substrates) and normalized to cellular protein content, determined by the Bradford method [44]. […]

OCT1 [2] = biological target: T1, OCT1; assay: Trans-stimulation assay of TEA uptake in OCT1-transfected HEK293 cells; settings: pre-loading 60 min with 100 μM pyrethroid or 2 mM unlabeled TEA; HEK-OCT1 cells
Method: Trans-stimulation assays were performed as previously described. Briefly, OCT1-transfected HEK293 cells were first preloaded with 2 mM unlabeled TEA or 100 μM pyrethroid for 60 min at 37°c in the transport assay medium described above. After washing twice with PBS, cells were next re-incubated in transport assay medium containing 29 μM [1-^14C]-TEA for 5 min at 37°C. After washing twice with PBS, cells were lysed in distilled water and intracellular accumulation of [1-^14C]-TEA was then determined by scintillation counting.
as §1

OCT1 [3] = biological target: T1, OCT1; assay: Dopamine accumulation in OCT1-transfected HEK293 cells
Method: HEK-MOCK and HEK-OCT1 cells were incubated with transport assay medium containing 11 nM 3,4-[Ring-2,5,6-^3H]-dopamine, in the absence or presence of the reference OCT1 inhibitor verapamil or of pyrethroids for 5 min at 37°C in the transport assay medium described above. After washing twice with PBS, cells were lysed in distilled water and intracellular accumulation of dopamine was finally measured by scintillation counting.
(A) HEK-OCT1 and HEK-MOCK cells were incubated with 11 nM 3,4-[Ring-2,5,6-^3H]-dopamine in the absence or presence of the reference OCT1 inhibitor verapamil (100 μM) for 5 min at 37°C. Intracellular accumulation of 3,4-[Ring-2,5,6-^3H]-dopamine was then determined by scintillation counting. […] Intracellular accumulation of 3,4-[Ring-2,5,6-^3H]-dopamine was then determined by scintillation counting. Data are expressed as percentages of OCT1-mediated transport of dopamine in control pyrethroid-unexposed cells, determined by subtracting accumulation of dopamine in HEK-MOCK cells from that in HEK-OCT1 cells in the absence of pyrethroids, arbitrarily set at 100% and indicated by a dotted line on the graph.

OATP1B3 = biological target: T3, OATP1B3 (Homo sapiens, UniProt Q9NPD5); assay: OATP1B3 activity: fluorescein accumulation in CHO-OATP1B3 cells; settings: pyrethroid up to 100 μM
T3 construct: expressed in transfected cells; host or cells: CHO
T3 sequence (Q9NPD5 1-702): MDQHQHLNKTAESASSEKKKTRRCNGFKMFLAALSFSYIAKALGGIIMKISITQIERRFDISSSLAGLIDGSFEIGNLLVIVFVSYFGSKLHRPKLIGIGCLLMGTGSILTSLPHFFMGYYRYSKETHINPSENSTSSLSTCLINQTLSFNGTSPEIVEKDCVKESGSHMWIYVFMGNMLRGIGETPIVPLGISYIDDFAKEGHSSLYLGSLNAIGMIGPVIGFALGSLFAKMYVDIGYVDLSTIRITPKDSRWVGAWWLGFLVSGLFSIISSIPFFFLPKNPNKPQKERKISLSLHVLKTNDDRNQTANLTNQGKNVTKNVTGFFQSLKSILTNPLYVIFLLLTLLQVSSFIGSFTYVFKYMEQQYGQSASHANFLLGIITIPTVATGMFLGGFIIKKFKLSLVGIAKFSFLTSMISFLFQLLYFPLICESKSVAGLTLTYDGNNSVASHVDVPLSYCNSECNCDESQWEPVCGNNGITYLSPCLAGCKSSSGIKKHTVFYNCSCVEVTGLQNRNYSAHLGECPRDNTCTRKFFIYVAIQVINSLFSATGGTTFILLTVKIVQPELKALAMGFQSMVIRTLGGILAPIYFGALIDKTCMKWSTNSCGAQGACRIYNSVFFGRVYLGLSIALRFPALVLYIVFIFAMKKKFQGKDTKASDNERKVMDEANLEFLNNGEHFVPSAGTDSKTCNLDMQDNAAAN
Method: as §2
For accumulation assays (performed for all transporters, excepted BCRP), transporter-expressing cells usually cultured in 48-well plates were first incubated at 37°C with reference substrates in the absence (control) or presence of pyrethroids or reference inhibitors, in a well-defined transport assay medium [42], consisting of 136 mM NaCl, 5.3 mM KCl, 1.1mM KH2PO4, 0.8 mM MgSO4, 1.8 mM CaCl2, 10 mM HEPES, 11 mM D-glucose and adjusted to pH = 7.4 (excepted for MATE transporter assays, for which pH was set to 8.4). The nature of substrates and reference inhibitors and the incubation times with substrates, that varied according to the transporter, were selected in agreement with previous studies [41, 43] and are indicated in S3 Table. The total incubation volume with substrates was 200 μL/well. […]
as §3

Row | Structure (SMILES) | cis-effect on TEA accumulation in HEK-OCT1 cells (OCT1 [1]) | effect on MATE2-K activity (MATE2-K; pyrethroid up to 100 μM, HEK-MATE2-K cells, TEA) | effect on MATE2-K activity (MATE2-K; pyrethroid up to 100 μM, HEK-MATE2-K cells, TEA, listed as Allethrin) | effect of pre-loading on radiolabeled TEA uptake (trans-stimulation assay) (OCT1 [2]) | effect on OCT1-mediated transport of dopamine (OCT1 [3]; pyrethroid 10, 100 or 300 μM, 11 nM dopamine, 5 min) | effect on MATE2-K activity (MATE2-K) | effect on OCT1-mediated dopamine uptake (OCT1 [3]; pyrethroid 10 μM) | effect on OATP1B3 activity (OATP1B3) | effect on OATP1B3 activity (OATP1B3; listed as Tetramethrin)
1 | C=CCC1=C(C)C(OC(=O)C2C(C=C(C)C)C2(C)C)CC1=O (stereo not shown) [allethrin] | markedly cis-inhibit | failed to alter | No effect (up to 100 μM) | trans-inhibition | significantly inhibit |  |  |  | 
2 | CC(C)=CC1C(C(=O)OCN2C(=O)C3=C(CCCC3)C2=O)C1(C)C (stereo not shown) [tetramethrin] |  |  |  | trans-inhibition |  | No effect (up to 100 μM) | failed to significantly alter | failed to alter | No effect (up to 100 μM)

From publication PMC5242521 (PLoS ONE, 2017)
